From patent US9409907B2, “Inhibitor compounds” (Cancer Research Technology Limited, priority 2012, dated 2016)
pIC50: −log10 of the molar value.

molecular target: full length MPS1 (Homo sapiens (Human), UniProt P33981); assay: Measurement of inhibition of MPS1 kinase (Caliper EZ reader mobility-shift enzyme assay); assay type: biochemical; details: full length MPS1 12.5 nM or 3 nM, H236 peptide 5 μM, ATP 10 μM, 60 min at room temperature
Procedure: Measurement of Inhibition of MPS1 Kinase
The reaction was carried out for 60 min at room temperature and stopped by the addition of buffer (10 μl) containing 20 mM EDTA, 0.05% (v/v) Brij-35, in 0.1M HEPES-buffered saline (Free acid, Sigma, UK). The plate was read on a Caliper EZ reader II (Caliper Life Sciences).
The % inhibition of the compounds is calculated relative to the means of selected control wells.

Chain of full length MPS1 (P33981 whole entry): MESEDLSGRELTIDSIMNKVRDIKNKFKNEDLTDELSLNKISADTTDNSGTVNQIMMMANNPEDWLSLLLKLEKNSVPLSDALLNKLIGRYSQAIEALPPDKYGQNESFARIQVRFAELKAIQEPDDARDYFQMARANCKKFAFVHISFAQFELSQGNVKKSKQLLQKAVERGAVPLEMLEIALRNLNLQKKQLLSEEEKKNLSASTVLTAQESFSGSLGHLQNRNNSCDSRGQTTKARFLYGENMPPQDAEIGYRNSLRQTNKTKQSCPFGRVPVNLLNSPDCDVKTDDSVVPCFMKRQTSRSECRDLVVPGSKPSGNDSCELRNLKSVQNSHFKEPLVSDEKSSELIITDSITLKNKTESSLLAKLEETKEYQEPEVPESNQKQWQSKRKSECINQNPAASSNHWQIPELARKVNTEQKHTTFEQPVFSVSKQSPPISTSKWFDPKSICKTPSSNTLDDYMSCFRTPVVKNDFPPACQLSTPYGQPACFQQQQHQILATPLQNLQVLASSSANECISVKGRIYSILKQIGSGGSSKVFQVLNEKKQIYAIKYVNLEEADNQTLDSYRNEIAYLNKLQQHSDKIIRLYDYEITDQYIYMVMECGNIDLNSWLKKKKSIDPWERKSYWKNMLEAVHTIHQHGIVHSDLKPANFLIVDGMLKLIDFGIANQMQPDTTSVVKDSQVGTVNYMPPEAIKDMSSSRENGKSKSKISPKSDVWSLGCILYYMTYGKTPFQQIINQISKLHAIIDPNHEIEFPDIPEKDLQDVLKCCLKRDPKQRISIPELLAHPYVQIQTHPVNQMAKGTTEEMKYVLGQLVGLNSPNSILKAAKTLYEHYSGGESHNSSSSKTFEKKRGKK

| Compound | pIC50 |
| --- | --- |
| COc1cc(-c2cnn(C)c2)ccc1Nc1ncc2ccnc(NC(C)C3CCOC3)c2n1 (racemic) [Example 125, Racemic N^2-(2-methoxy-4-(1-methyl-1H-pyrazol-4-yl)phenyl)-N^8-(1-(tetrahydrofuran-3-yl)ethyl)pyrido[3,4-d]pyrimidine-2,8-diamine] | 8.52 |
| COc1cc(-c2cnn(C)c2)ccc1Nc1ncc2ccnc(N3CCS(=O)(=O)CC3)c2n1 [Example 118, 4-(2-((2-methoxy-4-(1-methyl-1H-pyrazol-4-yl)phenyl)amino)pyrido[3,4-d]pyrimidin-8-yl)thiomorpholine 1,1-dioxide] | 7.96 |
| COc1cc(-c2cnn(CCO)c2)ccc1Nc1ncc2ccnc(NC3CCCCC3)c2n1 [Example 43, 2-(4-(4-((8-(cyclohexylamino)pyrido[3,4-d]pyrimidin-2-yl)amino)-3-methoxyphenyl)-1H-pyrazol-1-yl)ethanol] | 7.85 |
| COc1cc(-c2cnn(C)c2)ccc1Nc1ncc2ccnc(NC(CO)CO)c2n1 [Example 130, 2-(2-(2-Methoxy-4-(1-methyl-1H-pyrazol-4-yl)phenylamino)pyrido[3,4-d]pyrimidin-8-ylamino)propane-1,3-diol] | 8.40 |
| COc1cc(C(=O)N2CC(OC)C2)ccc1Nc1cc2c(-c3cn(C)nc3C)cccc2cn1 [Example 8, (4-((5-(1,3-dimethyl-1H-pyrazol-4-yl)isoquinolin-3-yl)amino)-3-methoxyphenyl)(3-methoxyazetidin-1-yl)methanone] | 7.57 |
| CN1CCC(NC(=O)c2ccc(Nc3cc4c(-c5cnn(C)c5)cccc4cn3)c(OC(F)(F)F)c2)CC1 [Example 6, 4-((5-(1-methyl-1H-pyrazol-4-yl)isoquinolin-3-yl)amino)-N-(1-methylpiperidin-4-yl)-3-(trifluoromethoxy)benzamide] | 6.53 |
| COc1cc(-c2cnn(C)c2)ccc1Nc1ncc2ccnc(N3CCC4(CCC4)C3)c2n1 [Example 66, N-(2-methoxy-4-(1-methyl-1H-pyrazol-4-yl)phenyl)-8-(6-azaspiro[3.4]octan-6-yl)pyrido[3,4-d]pyrimidin-2-amine] | 8.10 |
| CCOc1cc(-c2cnn(C)c2)ccc1Nc1ncc2ccnc(N3CCC4(COC4)C3)c2n1 [Example 159, N-(2-ethoxy-4-(1-methyl-1H-pyrazol-4-yl)phenyl)-8-(2-oxa-6-azaspiro[3.4]octan-6-yl)pyrdio[3,4-d]pyrimidin-2-amine] | 8.30 |
| COc1cc(-c2cnn(C)c2)ccc1Nc1ncc2ccnc(N3CCC4(CCOC4)C3)c2n1 (stereo not shown) [Example 122, N-(2-methoxy-4-(1-methyl-1H-pyrazol-4-yl)phenyl)-8-(2-oxa-7-azaspiro[4.4]nonan-7-yl)pyrido[3,4-d]pyrimidin-2-amine] | 8.52 |
| COc1cc(-c2cnn(C)c2)ccc1Nc1ncc2ccnc(NCC(C)(C)OC)c2n1 [Example 86, N8-(2-methoxy-2-methylpropyl)-N2-(2-methoxy-4-(1-methyl-1H-pyrazol-4-yl)phenyl)pyrido[3,4-d]pyrimidine-2,8-diamine] | 8.30 |
| CS(=O)(=O)c1ccc(Nc2ncc3ccnc(N4CCC5(COC5)C4)c3n2)c(Cl)c1 [Example 199] | 7.60 |
| CCOc1cc(-c2cnn(C)c2)ccc1Nc1ncc2ccnc(NCC3CC3)c2n1 [Example 101, N8-(cyclopropylmethyl)-N2-(2-ethoxy-4-(1-methyl-1H-pyrazol-4-yl)phenyl)pyrido[3,4-d]pyrimidine-2,8-diamine] | 7.31 |
| CCOc1cc(-c2cnn(C)c2)ccc1Nc1ncc2ccnc(NC3CCOCC3)c2n1 [Example 102, N2-(2-ethoxy-4-(1-methyl-1H-pyrazol-4-yl)phenyl)-N8-(tetrahydro-2H-pyran-4-yl)pyrido[3,4-d]pyrimidine-2,8-diamine] | 8.00 |
| COC(C)(C)CNc1nccc2cnc(Nc3ccc(F)cc3OC(F)F)nc12 [Example 203] | 7.34 |
| COc1cc(-c2cnn(C)c2)ccc1Nc1ncc2ccnc(C3=CCOCC3)c2n1 [Example 144, 8-(3,6-Dihydro-2H-pyran-4-yl)-N-(2-methoxy-4-(1-methyl-1H-pyrazol-4-yl)phenyl)pyrido[3,4-d]pyrimidin-2-amine] | 8.30 |
| COc1cc(-c2cnn(C)c2)ccc1Nc1ncc2ccnc(N3CCN(S(C)(=O)=O)CC3)c2n1 [Example 139, N-(2-Methoxy-4-(1-methyl-1H-pyrazol-4-yl)phenyl)-8-(4-(methylsulfonyl)piperazin-1-yl)pyrido[3,4-d]pyrimidin-2-amine] | 8.22 |
| COc1cc(-c2nncn2C)ccc1Nc1ncc2c(C)cnc(NCC(C)(C)OC)c2n1 [Example 150, N^8-(2-methoxy-2-methylpropyl)-N^2-(2-methoxy-4-(4-methyl-4H-1,2,4-triazol-3-yl)phenyl)-5-methylpyrido[3,4-d]pyrimidine-2,8-diamine] | 8.52 |
| COc1cc(-c2nncn2C)ccc1Nc1ncc2c(C)cnc(NCC3(C)COC3)c2n1 [Example 155, N^2-(2-methoxy-4-(4-methyl-4H-1,2,4-triazol-3-yl)phenyl)-5-methyl-N^8-((3-methyloxetan-3-yl)methyl)pyrido[3,4-d]pyrimidine-2,8-diamine] | 8.40 |
| COc1cc(-c2cnn(C)c2)ccc1Nc1ncc2ccnc(N3CCCC4(COC4)C3)c2n1 [Example 123, N-(2-methoxy-4-(1-methyl-1H-pyrazol-4-yl)phenyl)-8-(2-oxa-6-azaspiro[3.5]nonan-6-yl)pyrido[3,4-d]pyrimidin-2-amine] | 7.96 |
| COc1cc(C(=O)N2CC(OC)C2)ccc1Nc1cc2c(-c3ccnn3C)cccc2cn1 [Example 9, (3-methoxy-4-((5-(1-methyl-1H-pyrazol-5-yl)isoquinolin-3-yl)amino)phenyl)(3-methoxyazetidin-1-yl)methanone] | 7.66 |
| COc1cc(-c2cnn(C)c2)ccc1Nc1ncc2ccnc(N3CCC4(COC4)C3)c2n1 [Example 88, N-(2-methoxy-4-(1-methyl-1H-pyrazol-4-yl)phenyl)-8-(2-oxa-6-azaspiro[3.4]oxtan-6-yl)pyrido[3,4-d]pyrimidin-2-amine] | 8.52 |
| COc1cc(-c2cnc(C)n2C)ccc1Nc1cc2c(-c3cnn(C)c3)cccc2cn1 [Example 10, N-(4-(1,2-dimethyl-1H-imidazol-5-yl)-2-methoxyphenyl)-5-(1-methyl-1H-pyrazol-4-yl)isoquinolin-3-amine] | 8.22 |
| COc1cc(C(=O)N2CC(OC)C2)ccc1Nc1cc2c(-c3c(C)noc3C)cccc2cn1 [Example 5, (4-((5-(3,5-dimethylisoxazol-4-yl)isoquinolin-3-yl)amino)-3-methoxyphenyl)(3-methoxyazetidin-1-yl)methanone] | 6.58 |
| COc1cc(-c2cn(C)nc2C)ccc1Nc1ncc2ccnc(NCC3(C)CCOC3)c2n1 (stereo not shown) [Example 191] | 8.70 |
| CCOc1cc(-c2nncn2C)ccc1Nc1ncc2ccnc(NCC(C)(C)OC)c2n1 [Example 188] | 8.70 |
| COc1cc(-c2cnn(C)c2C)ccc1Nc1ncc2ccnc(NCC(C)(C)OC)c2n1 [Example 147, N^2-(4-(1,5-dimethyl-1H-pyrazol-4-yl)-2-methoxyphenyl)-N^8-(2-methoxy-2-methylpropyl)pyrido[3,4-d]pyrimidine-2,8-diamine] | 8.70 |
| COc1cc(-c2cnn(C)c2)ccc1Nc1ncc2ccnc(NC(C)(C)CO)c2n1 [Example 114] | 7.77 |
| CN(C)C(=O)c1ccc(Nc2cc3c(-c4cnn(C)c4)cccc3cn2)c(Cl)c1 [Example 26] | 7.11 |
